Tests used:
TNF-α secretion = experiment: TNF-α ELISA: TNF-alpha suppression in PMA/ionomycin-induced white blood cells; conditions: for TNF-α inhibition achievable by steroid alone: even at very high concentrations
[1] = 200 mg/day orally; cited from earlier work

Q: For `C[C@@H]1C[C@H]2[C@@H]3CCC4=CC(=O)C=C[C@]4(C)[C@@]3(F)[C@@H](O)C[C@]2(C)[C@@]1(O)C(=O)CO` [Dexamethasone, dexamethasone], which “TNF-alpha Suppression” value (TNF-α secretion; Dexamethasone 1.0 nM, Econazole 0.000 μM) is on record?
A: Its value is 23.96%.

Q: And the “TNF-alpha Suppression” value (TNF-α secretion; Dexamethasone 2.0 nM, Econazole 0.000 μM)?
A: Its value is 33.10%.

Q: And the “TNF-alpha Suppression” value (TNF-α secretion; Dexamethasone 4.0 nM, Econazole 0.000 μM)?
A: Its value is 36.87%.

Q: What about the “TNF-alpha Suppression” value (TNF-α secretion; Dexamethasone 8.0 nM, Econazole 0.000 μM) of the same compound?
A: The value was 40.33%.

Q: What about the “TNF-alpha Suppression” value (TNF-α secretion; Dexamethasone 16.0 nM, Econazole 0.000 μM) of the same compound?
A: The value was 44.12%.

Q: What about the “TNF-alpha Suppression” value (TNF-α secretion; Dexamethasone 32.0 nM, Econazole 0.000 μM) of the same compound?
A: Its value is 51.26%.

Q: What about the “TNF-alpha Suppression” value (TNF-α secretion; Dexamethasone 64.0 nM, Econazole 0.000 μM) of the same compound?
A: Its value is 54.35%.

Q: And the “TNF-alpha Suppression” value (TNF-α secretion; Dexamethasone 127.0 nM, Econazole 0.000 μM)?
A: The value was 52.97%.

Q: And the “TNF-alpha Suppression” value (TNF-α secretion; Dexamethasone 255.0 nM, Econazole 0.000 μM)?
A: The value was 59.93%.

Q: And the “TNF-α inhibition achievable by steroid alone” value (TNF-α secretion; dexamethasone alone)?
A: Its value is 60%.

Q: And the “suppression of TNF-α secretion” value (TNF-α secretion; single agent concentration of 4 nM, PMA and ionomycin stimulated PBMCs)?
A: The value was 40%.

Q: Which results are given for `CC(=O)OCC(=O)[C@@]1(OC(C)=O)[C@@H](C)C[C@H]2[C@@H]3C[C@H](F)C4=CC(=O)C=C[C@]4(C)[C@@]3(F)[C@@H](O)C[C@@]21C` [Diflorasone, diflorasone]?
A: TNF-alpha Suppression (TNF-α secretion; Diflorasone 0.5 nM, Clotrimazole 0.000 μM): 9.84%; TNF-alpha Suppression (TNF-α secretion; Diflorasone 0.9 nM, Clotrimazole 0.000 μM): 16.12%; TNF-alpha Suppression (TNF-α secretion; Diflorasone 1.9 nM, Clotrimazole 0.000 μM): 21.93%; TNF-alpha Suppression (TNF-α secretion; Diflorasone 3.8 nM, Clotrimazole 0.000 μM): 29.01%; TNF-alpha Suppression (TNF-α secretion; Diflorasone 7.5 nM, Clotrimazole 0.000 μM): 36.86%; TNF-alpha Suppression (TNF-α secretion; Diflorasone 15.0 nM, Clotrimazole 0.000 μM): 41.37%; TNF-alpha Suppression (TNF-α secretion; Diflorasone 30.0 nM, Clotrimazole 0.000 μM): 49.96%; TNF-alpha Suppression (TNF-α secretion; Diflorasone 60.0 nM, Clotrimazole 0.000 μM): 48.95%; TNF-alpha Suppression (TNF-α secretion; Diflorasone 120.0 nM, Clotrimazole 0.000 μM): 47.05%; TNF-α inhibition achievable by steroid alone (TNF-α secretion; diflorasone alone): 47%; suppression of TNF-α secretion (TNF-α secretion; single agent concentration of 3.8 nM, P/I stimulated PBMCs): 29%

Q: Which “TNF-alpha Suppression” value (TNF-α secretion; Dexamethasone 0.0 nM, Econazole 0.035 μM) does the source give for `Clc1ccc(COC(Cn2ccnc2)c2ccc(Cl)cc2Cl)cc1` (stereo not shown) [Econazole, econazole] here?
A: Its value is 13.30%.

Q: What about the “TNF-alpha Suppression” value (TNF-α secretion; Dexamethasone 0.0 nM, Econazole 0.070 μM) of the same compound?
A: Its value is 20.05%.

Q: And the “TNF-alpha Suppression” value (TNF-α secretion; Dexamethasone 0.0 nM, Econazole 0.141 μM)?
A: The value was 14.11%.

Q: What about the “TNF-alpha Suppression” value (TNF-α secretion; Dexamethasone 0.0 nM, Econazole 0.281 μM) of the same compound?
A: Its value is 16.99%.

Q: And the “TNF-alpha Suppression” value (TNF-α secretion; Dexamethasone 0.0 nM, Econazole 1.124 μM)?
A: Its value is 38.71%.

Q: And the “TNF-alpha Suppression” value (TNF-α secretion; Dexamethasone 0.0 nM, Econazole 2.249 μM)?
A: Its value is 43.90%.

Q: What about the “TNF-alpha Suppression” value (TNF-α secretion; Dexamethasone 0.0 nM, Econazole 4.497 μM) of the same compound?
A: Its value is 53.07%.

Q: What about the “TNF-alpha Suppression” value (TNF-α secretion; Dexamethasone 0.0 nM, Econazole 8.995 μM) of the same compound?
A: The value was 70.06%.

Q: For `CC(=O)N1CCN(c2ccc(OCC3COC(Cn4ccnc4)(c4ccc(Cl)cc4Cl)O3)cc2)CC1` (stereo not shown) [ketoconazole], which serum concentration [1] is on record?
A: Its serum concentration is “about 3.2 micrograms”.

Q: For `Clc1ccccc1C(c1ccccc1)(c1ccccc1)n1ccnc1` [Clotrimazole, clotrimazole], which “TNF-alpha Suppression” value (TNF-α secretion; Diflorasone 0.0 nM, Clotrimazole 0.008 μM) is on record?
A: The value was 4.92%.

Q: And the “TNF-alpha Suppression” value (TNF-α secretion; Diflorasone 0.0 nM, Clotrimazole 0.014 μM)?
A: The value was 5.86%.

Q: And the “TNF-alpha Suppression” value (TNF-α secretion; Diflorasone 0.0 nM, Clotrimazole 0.031 μM)?
A: The value was 12.47%.

Q: What about the “TNF-alpha Suppression” value (TNF-α secretion; Diflorasone 0.0 nM, Clotrimazole 0.063 μM) of the same compound?
A: The value was 11.43%.

Q: And the “TNF-alpha Suppression” value (TNF-α secretion; Diflorasone 0.0 nM, Clotrimazole 0.125 μM)?
A: The value was 18.40%.

Q: And the “TNF-alpha Suppression” value (TNF-α secretion; Diflorasone 0.0 nM, Clotrimazole 0.250 μM)?
A: The value was 14.29%.

Q: What about the “TNF-alpha Suppression” value (TNF-α secretion; Diflorasone 0.0 nM, Clotrimazole 0.500 μM) of the same compound?
A: Its value is 20.07%.

Q: What about the “TNF-alpha Suppression” value (TNF-α secretion; Diflorasone 0.0 nM, Clotrimazole 1.000 μM) of the same compound?
A: The value was 19.90%.

Q: What about the “TNF-alpha Suppression” value (TNF-α secretion; Diflorasone 0.0 nM, Clotrimazole 2.000 μM) of the same compound?
A: Its value is 30.02%.
